Source: patent publication US10758534B2 (Vertex Pharmaceuticals Incorporated, priority 2014, dated 2020)

Target: T1, F508del (Homo sapiens, UniProt P13569, DEL508-508)
T1 construct: expressed in transfected cells
Assay: Protocol 1: membrane potential optical assay (FLIPR III, voltage sensing dye), identification of potentiator compounds
Type: cell-based
Conditions: Table 3, compounds of Table 1
Outline: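 Membrane potential in forskolin-activated, temperature-rescued F508del NIH 3T3 cells is followed with a voltage-sensing dye on FLIPR III. A chloride ion gradient created at the single addition step provides the driving force, after prior compound treatment.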

T1 sequence (P13569 with tags, fused parts or gaps DEL508-508): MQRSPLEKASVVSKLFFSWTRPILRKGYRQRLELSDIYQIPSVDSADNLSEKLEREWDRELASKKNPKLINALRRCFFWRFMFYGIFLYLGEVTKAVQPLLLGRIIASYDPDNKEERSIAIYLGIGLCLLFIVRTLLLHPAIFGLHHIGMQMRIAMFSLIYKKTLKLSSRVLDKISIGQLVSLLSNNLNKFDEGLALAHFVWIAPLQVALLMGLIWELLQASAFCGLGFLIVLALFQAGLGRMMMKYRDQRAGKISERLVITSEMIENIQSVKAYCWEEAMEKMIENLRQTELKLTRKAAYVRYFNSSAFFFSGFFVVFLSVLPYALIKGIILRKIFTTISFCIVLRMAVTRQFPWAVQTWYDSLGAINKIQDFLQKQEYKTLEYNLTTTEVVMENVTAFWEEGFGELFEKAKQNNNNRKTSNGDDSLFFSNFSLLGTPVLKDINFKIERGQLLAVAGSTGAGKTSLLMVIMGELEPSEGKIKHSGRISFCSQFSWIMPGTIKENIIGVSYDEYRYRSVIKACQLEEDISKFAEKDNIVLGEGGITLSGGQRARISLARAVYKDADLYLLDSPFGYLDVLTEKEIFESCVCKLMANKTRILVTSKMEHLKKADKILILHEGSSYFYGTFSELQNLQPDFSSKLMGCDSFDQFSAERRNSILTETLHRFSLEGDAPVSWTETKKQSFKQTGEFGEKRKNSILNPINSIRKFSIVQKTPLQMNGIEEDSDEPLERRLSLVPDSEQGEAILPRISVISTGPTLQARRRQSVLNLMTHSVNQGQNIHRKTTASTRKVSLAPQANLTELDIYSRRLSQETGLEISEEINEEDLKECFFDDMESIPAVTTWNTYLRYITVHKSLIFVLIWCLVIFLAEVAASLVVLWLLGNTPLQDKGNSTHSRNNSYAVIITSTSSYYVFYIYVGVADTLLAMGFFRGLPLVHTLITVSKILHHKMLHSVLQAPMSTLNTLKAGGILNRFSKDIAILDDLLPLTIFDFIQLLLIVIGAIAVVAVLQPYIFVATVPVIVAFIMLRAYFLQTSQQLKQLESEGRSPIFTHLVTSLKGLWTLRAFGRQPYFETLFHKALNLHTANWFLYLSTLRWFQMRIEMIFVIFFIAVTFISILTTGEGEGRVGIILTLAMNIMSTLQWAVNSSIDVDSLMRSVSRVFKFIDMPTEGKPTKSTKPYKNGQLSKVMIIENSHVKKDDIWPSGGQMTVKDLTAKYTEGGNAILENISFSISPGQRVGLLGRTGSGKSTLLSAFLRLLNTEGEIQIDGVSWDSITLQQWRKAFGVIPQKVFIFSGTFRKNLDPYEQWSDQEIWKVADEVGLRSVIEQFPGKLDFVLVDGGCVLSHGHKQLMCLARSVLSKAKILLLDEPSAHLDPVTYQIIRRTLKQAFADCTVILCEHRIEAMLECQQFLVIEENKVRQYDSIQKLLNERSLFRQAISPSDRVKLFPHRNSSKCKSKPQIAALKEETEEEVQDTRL

Row | Structure (SMILES) | EC30
1 | C[C@@H]1CN(c2nc(/C=C/C3CC3)ccc2C(=O)NS(=O)(=O)c2cccc(N)n2)C(C)(C)C1 [Compound 1379, N-[(6-amino-2-pyridyl)sulfonyl]-6-[(E)-2-cyclopropylvinyl]-2-[(4S)-2,2,4-trimethylpyrrolidin-1-yl]pyridine-3-carboxamide] | +++ (“+++” means <3 uM)
2 | C[C@@H]1CN(c2nc(C(C)(C)C)c(C3=CCC(C(F)(F)F)CC3)cc2C(=O)NS(=O)(=O)c2cccc(N)n2)C(C)(C)C1 (stereo partly drawn) [Compound 1380, N-[(6-amino-2-pyridyl)sulfonyl]-6-tert-butyl-5-[4-(trifluoromethyl)cyclohexen-1-yl]-2-[(4S)-2,2,4-trimethylpyrrolidin-1-yl]pyridine-3-carboxamide] | +++ (“+++” means <3 uM)
3 | CC1CN(c2nc(C(C)(C)C)c(C3=CCC(C(=O)O)CC3)cc2C(=O)NS(=O)(=O)c2cccc(N)n2)C(C)(C)C1 (stereo not drawn) [Compound 1381, 4-[5-[(6-amino-2-pyridyl)sulfonylcarbamoyl]-2-tert-butyl-6-(2,2,4-trimethylpyrrolidin-1-yl)-3-pyridyl]cyclohex-3-ene-1-carboxylic acid] | ++ (“++” means between 3 uM and 10 uM)
4 | CC1CN(c2nc(C(C)(C)C)c(C3=CCN(C)CC3)cc2C(=O)NS(=O)(=O)c2cccc(N)n2)C(C)(C)C1 (stereo not drawn) [Compound 1382, N-[(6-amino-2-pyridyl)sulfonyl]-6-tert-butyl-5-(1-methyl-3,6-dihydro-2H-pyridin-4-yl)-2-(2,2,4-trimethylpyrrolidin-1-yl)pyridine-3-carboxamide] | + (“+” means greater than 10 uM)
5 | CCN(CC)c1ccc(C)c(-c2ccc(C(=O)NS(=O)(=O)c3cccc(N)n3)c(N3CC(C)CC3(C)C)n2)n1 (stereo not drawn) [Compound 1383, N-[(6-amino-2-pyridyl)sulfonyl]-6-[6-(diethylamino)-3-methyl-2-pyridyl]-2-(2,2,4-trimethylpyrrolidin-1-yl)pyridine-3-carboxamide] | +++ (“+++” means <3 uM)
6 | CC1CN(c2ncc(-c3ccccc3)cc2C(=O)NS(=O)(=O)c2cccc(N)n2)C(C)(C)C1 (stereo not drawn) [Compound 1384, N-[(6-amino-2-pyridyl)sulfonyl]-5-phenyl-2-(2,2,4-trimethylpyrrolidin-1-yl)pyridine-3-carboxamide] | +++ (“+++” means <3 uM)
7 | CC(C)COc1cc(F)cc(-c2nc(N3C[C@H](C)CC3(C)C)ccc2C(=O)NS(=O)(=O)c2cccc(N)n2)c1 [Compound 1385, N-[(6-amino-2-pyridyl)sulfonyl]-2-(3-fluoro-5-isobutoxy-phenyl)-6-[(4R)-2,2,4-trimethylpyrrolidin-1-yl]pyridine-3-carboxamide] | +++ (“+++” means <3 uM)
8 | C[C@@H]1CN(c2nc3c(cc2C(=O)NS(=O)(=O)c2cccc(N)n2)CCC3)C(C)(C)C1 [Compound 1386, N-[(6-amino-2-pyridyl)sulfonyl]-2-[(4S)-2,2,4-trimethylpyrrolidin-1-yl]-6,7-dihydro-5H-cyclopenta[b]pyridine-3-carboxamide] | ++ (“++” means between 3 uM and 10 uM)
9 | CC(C)COc1cc(F)cc(-c2ccc(C(=O)NS(=O)(=O)c3cccc(N)n3)c(-n3nc(C(C)C)cc3C(C)C)n2)c1 [Compound 1387, N-[(6-amino-2-pyridyl)sulfonyl]-2-(3,5-diisopropylpyrazol-1-yl)-6-(3-fluoro-5-isobutoxy-phenyl)pyridine-3-carboxamide] | +++ (“+++” means <3 uM)
10 | CC1CN(c2nc(C(C)(C)C)c(C3=CC4CCC(C3)N4C(=O)OC(C)(C)C)cc2C(=O)NS(=O)(=O)c2cccc(N)n2)C(C)(C)C1 (stereo not drawn) [Compound 1388, tert-butyl 3-[5-[(6-amino-2-pyridyl)sulfonylcarbamoyl]-2-tert-butyl-6-(2,2,4-trimethylpyrrolidin-1-yl)-3-pyridyl]-8-azabicyclo[3.2.1]oct-3-ene-8-carboxylate] | +++ (“+++” means <3 uM)
11 | Cc1cc(C)c(Oc2nc(C3=CCN(Cc4ccccc4)CC3)ccc2C(=O)NS(=O)(=O)c2cccc(N)n2)c(C)c1 [Compound 1389, N-[(6-amino-2-pyridyl)sulfonyl]-6-(1-benzyl-3,6-dihydro-2H-pyridin-4-yl)-2-(2,4,6-trimethylphenoxy)pyridine-3-carboxamide] | +++ (“+++” means <3 uM)
12 | CC(C)=C(C)c1ccc(C(=O)NS(=O)(=O)c2cccc(N)n2)c(Oc2c(C)cc(C)cc2C)n1 [Compound 1390, N-[(6-amino-2-pyridyl)sulfonyl]-6-(1,2-dimethylprop-1-enyl)-2-(2,4,6-trimethylphenoxy)pyridine-3-carboxamide] | +++ (“+++” means <3 uM)
13 | CC(=O)NC1CCN(S(=O)(=O)NC(=O)c2ccc(-c3cc(F)cc(OCC(C)C)c3)nc2N2CC(C)CC2(C)C)C1 (stereo not drawn) [Compound 1391, N-(3-acetamidopyrrolidin-1-yl)sulfonyl-6-(3-fluoro-5-isobutoxy-phenyl)-2-(2,2,4-trimethylpyrrolidin-1-yl)pyridine-3-carboxamide] | +++ (“+++” means <3 uM)
14 | CCOc1cccc2c1CN(Cc1c(C)cccc1F)C2(C)C(=O)NS(=O)(=O)c1cccc(N)n1 (stereo not drawn) [Compound 1392, N-[(6-amino-2-pyridyl)sulfonyl]-4-ethoxy-2-[(2-fluoro-6-methyl-phenyl)methyl]-1-methyl-isoindoline-1-carboxamide] | +++ (“+++” means <3 uM)
15 | CCOc1cccc2c1CN(Cc1c(C)cc(C)cc1C)C2(C)C(=O)NS(=O)(=O)c1ccc2cc[nH]c2c1 (stereo not drawn) [Compound 1393, 4-ethoxy-N-(1H-indol-6-ylsulfonyl)-1-methyl-2-[(2,4,6-trimethylphenyl)methyl]isoindoline-1-carboxamide] | +++ (“+++” means <3 uM)
16 | CCOc1cccc2c1CN(Cc1c(C)cc(C)cc1C)C2(C)C(=O)NS(=O)(=O)c1ccc(F)c(N)c1 (stereo not drawn) [Compound 1394, N-(3-amino-4-fluoro-phenyl)sulfonyl-4-ethoxy-1-methyl-2-[(2,4,6-trimethylphenyl)methyl]isoindoline-1-carboxamide] | +++ (“+++” means <3 uM)
17 | CC(C)COc1cc(F)cc(-c2ccc(C(=O)NS(=O)(=O)c3cccc(N)n3)c(OCC3CCCCC3)n2)c1 [Compound 1395, N-[(6-amino-2-pyridyl)sulfonyl]-2-(cyclohexylmethoxy)-6-(3-fluoro-5-isobutoxy-phenyl)pyridine-3-carboxamide] | +++ (“+++” means <3 uM)
18 | CC(C)COc1cc(F)cc(-c2ccc(C(=O)NS(=O)(=O)c3ccccc3)c(N3C[C@H](C)CC3(C)C)n2)c1 [Compound 1396, N-(benzenesulfonyl)-6-(3-fluoro-5-isobutoxy-phenyl)-2-[(4R)-2,2,4-trimethylpyrrolidin-1-yl]pyridine-3-carboxamide] | +++ (“+++” means <3 uM)
19 | CCC(CC)Nc1ccc(-c2ccc(C(=O)NS(=O)(=O)c3cccc(N)n3)c(N3[C@H](C)CC[C@@H]3C)n2)cn1 [Compound 1397, N-[(6-amino-2-pyridyl)sulfonyl]-2-[(2R,5S)-2,5-dimethylpyrrolidin-1-yl]-6-[6-(1-ethylpropylamino)-3-pyridyl]pyridine-3-carboxamide] | +++ (“+++” means <3 uM)
20 | CC(C)CNc1ccc(-c2ccc(C(=O)NS(=O)(=O)c3cccc(N)n3)c(N3[C@H](C)CC[C@@H]3C)n2)cn1 [Compound 1398, N-[(6-amino-2-pyridyl)sulfonyl]-2-[(2S,5R)-2,5-dimethylpyrrolidin-1-yl]-6-[6-(isobutylamino)-3-pyridyl]pyridine-3-carboxamide] | ++ (“++” means between 3 uM and 10 uM)
21 | CC(C)[C@H](C)Nc1ccc(-c2ccc(C(=O)NS(=O)(=O)c3cccc(N)n3)c(N3[C@H](C)CC[C@@H]3C)n2)cn1 [Compound 1399, N-[(6-amino-2-pyridyl)sulfonyl]-6-[6-[[(1 S)-1,2-dimethylpropyl]amino]-3-pyridyl]-2-[(2S,5R)-2,5-dimethylpyrrolidin-1-yl]pyridine-3-carboxamide] | +++ (“+++” means <3 uM)
22 | [2H]C1([2H])[C@@H](C)CC(C)(C)N1c1nc(-c2cc(F)cc(OCC(C)C)c2)ccc1C(=O)NS(=O)(=O)c1cccc(N)n1 [Compound 1400, N-[(6-amino-2-pyridyl)sulfonyl]-2-[(3S)-2,2-dideuterio-3,5,5-trimethyl-pyrrolidin-1-yl]-6-(3-fluoro-5-isobutoxy-phenyl)pyridine-3-carboxamide] | +++ (“+++” means <3 uM)
23 | CC(C)(C)c1ccc(C(=O)NS(=O)(=O)c2cccc(N)n2)c(N2CC3CC(C3)C2)n1 [Compound 1401, N-[(6-amino-2-pyridyl)sulfonyl]-2-(3-azabicyclo[3.1.1]heptan-3-yl)-6-tert-butyl-pyridine-3-carboxamide] | +++ (“+++” means <3 uM)
24 | Cc1cc(C)c(Oc2nc(C3=CCC(C(F)(F)F)CC3)ccc2C(=O)NS(=O)(=O)c2cccc(N)n2)c(C)c1 (stereo not drawn) [Compound 1402, N-[(6-amino-2-pyridyl)sulfonyl]-6-[4-(trifluoromethyl)cyclohexen-1-yl]-2-(2,4,6-trimethylphenoxy)pyridine-3-carboxamide] | +++ (“+++” means <3 uM)
25 | CCOc1cccc2c1CN(Cc1c(C)cc(C)cc1C)C2(C)C(=O)NS(=O)(=O)c1cccc(F)c1OC (stereo not drawn) [Compound 1403, 4-ethoxy-N-(3-fluoro-2-methoxy-phenyl)sulfonyl-1-methyl-2-[(2,4,6-trimethylphenyl)methyl]isoindoline-1-carboxamide] | +++ (“+++” means <3 uM)
26 | CC1CN(c2nc(C(C)(C)C)c(C3=CCN(C(=O)OCc4ccccc4)CC3)cc2C(=O)NS(=O)(=O)c2cccc(N)n2)C(C)(C)C1 (stereo not drawn) [Compound 1404, benzyl 4-[5-[(6-amino-2-pyridyl)sulfonylcarbamoyl]-2-tert-butyl-6-(2,2,4-trimethylpyrrolidin-1-yl)-3-pyridyl]-3,6-dihydro-2H-pyridine-1-carboxylate] | +++ (“+++” means <3 uM)
27 | CC1CN(c2nc(C(C)(C)C)c(C3=CC(=O)CC(C)(C)C3)cc2C(=O)NS(=O)(=O)c2cccc(N)n2)C(C)(C)C1 (stereo not drawn) [Compound 1405, N-[(6-amino-2-pyridyl)sulfonyl]-6-tert-butyl-5-(5,5-dimethyl-3-oxo-cyclohexen-1-yl)-2-(2,2,4-trimethylpyrrolidin-1-yl)pyridine-3-carboxamide] | +++ (“+++” means <3 uM)
